This note sets out measurements from patent US20260098061A1, “EPHA2-BINDING PENDING PEPTIDE AND COMPOSITION COMPRISING SAME” (PeptiDream Inc., priority 2022, published 2026).

By Kd is commonly meant a measure of binding affinity in units of concentration.

The target in the assay is T1, Recombinant Human EphA2 Fc Protein (Homo sapiens, UniProt P29317).
T1 construct: purchased Elabscience
The experiment in a line: SPR interaction analysis (Biacore T200), kinetics of peptides against EphA2. Conditions: Recombinant Human EphA2 Fc Protein captured by Human Antibody Capture kit; single-cycle kinetics; 25° C.; HBS-P+ buffer with 1% DMSO. It is filed as binding. Here is the method: Example 14 Interaction Analysis by SPR was Performed Using Biacore (Cytiva)
SPR assay was performed using Biacore T200 (Cytiva).
The HBS-P+ buffer (10 mM HEPES (pH7.4), 150 mM NaCl, 0.05% (v/V) Surfactant P20) containing 1% DMSO was used as running buffer. Recombinant Human EphA2 Fc Protein (Fc tag, Elabscience) was captured by Human Antibody Capture kit (Cytiva). Peptide samples in DMSO were diluted with running buffer, and prepared five serial dilutions. Using these serial dilutions, kinetics of peptides against EphA2 was measured at a flow rate of 30 mL/min at 25° C. The method adopted for sample measurement was a single-cycle kinetics method. The analysis was conducted using the evaluation software 3.0 provided with Biacore T200. Kinetics fitting was done on the difference data obtained by subtracting the baseline data from sample measurement data. KD values were calculated based on the association rate constant (ka) and dissociation rate constant (kd).
A general note: In SPR one partner is held on a chip, and binding of the other changes the refractive index at the surface.

Numbered stars: 1 amine (or outer) side, 2 acyl side, 3 side chain; on linkers, the order of the positions; unused ones are H or OH. Bridge positions count the residues as written; N and C are the ends. Square brackets hold non-standard residues; d marks the D form. Side chains are listed from the residue outwards. Peptide text beside a SMILES is read from it. * marks the point of attachment. X1 = CC(C)C[C@H](CC(=O)[C@H](CC(N)=O)N[*:1])C(=O)[*:2]; Piperazinyl(4-CH2COOH) = O=C(O)CN1CCN(*)CC1; Trp(1-Me) = Cn1cc(C[C@H](N)C(=O)O)c2ccccc21; NMe3Pal = CN[C@@H](Cc1cccnc1)C(=O)O; NMeF = CN[C@@H](Cc1ccccc1)C(=O)O; NMeE = CN[C@@H](CCC(=O)O)C(=O)O; Aad = N[C@@H](CCCC(=O)O)C(=O)O; CO = O=C([*:1])[*:2]; βAla = NCCC(=O)O

As to `CC(C)C[C@@H]1NC(=O)[C@H](CC(N)=O)NC(=O)[C@H](Cc2ccccc2)N(C)C(=O)[C@@H](C)NC(=O)CSC[C@@H](C(N)=O)NC(=O)[C@H](CCC(=O)O)NC(=O)[C@H]([C@@H](C)O)NC(=O)[C@H](Cc2cn(C)c3ccccc23)NC(=O)[C@H](C(C)C)NC(=O)[C@H](Cc2cn(C)c3ccccc23)NC(=O)[C@H](Cc2ccccc2)N(C)C(=O)[C@H](CCCC(=O)O)NC1=O` [PDC_EphA2-00001417, da-MeF-N-L-Hgl-MeF-W1Me-V-W1Me-T-E-C-NH2] ({CH2CO}-[dA][NMeF]NL[Aad][NMeF][Trp(1-Me)]V[Trp(1-Me)]TEC-NH2; thioether N-12), the Kd lay within 1 to 10 nM.
The value for `CC(=O)NCCCC[C@@H](NC(=O)CCNC(=O)[C@@H]1CSCC(=O)N[C@H](C)C(=O)N(C)[C@@H](Cc2cccnc2)C(=O)N[C@@H](CC(N)=O)C(=O)N[C@@H](CC(C)C)C(=O)N[C@@H](CCCC(N)=O)C(=O)N(C)[C@@H](CCC(=O)O)C(=O)N[C@@H](Cc2cn(C)c3ccccc23)C(=O)N[C@@H](CCCCNC(=O)N2CCN(CC(=O)O)CC2)C(=O)N[C@@H](Cc2cn(C)c3ccccc23)C(=O)N[C@@H]([C@@H](C)O)C(=O)N[C@@H](CCCC(N)=O)C(=O)N1)C(N)=O` [PDC_EphA2-00007196, da-Me3Py-N-L-Hgn-MeE-W1Me-KCOpipzaa-W1Me-T-Hgn-C-bA-dkAc-NH2] ({CH2CO}-[dA][NMe3Pal]NL[Aad](NH2)[NMeE][Trp(1-Me)]K([CO-Piperazinyl(4-CH2COOH)])[Trp(1-Me)]T[Aad](NH2)C[βAla][dK](Ac)-NH2; thioether N-12) was less than 1 nM; that for `CC(=O)NCCCC[C@@H](NC(=O)CCNC(=O)[C@@H]1CSCC(=O)N[C@H](C)C(=O)N(C)[C@@H](Cc2ccccc2)C(=O)N[C@@H](CC(N)=O)C(=O)N[C@@H](CC(C)C)C(=O)N[C@@H](CCCC(=O)O)C(=O)N(C)[C@@H](Cc2ccccc2)C(=O)N[C@@H](Cc2cn(C)c3ccccc23)C(=O)N[C@@H](C(C)C)C(=O)N[C@@H](Cc2cn(C)c3ccccc23)C(=O)N[C@@H]([C@@H](C)O)C(=O)N[C@@H](CCC(=O)O)C(=O)N1)C(N)=O` [PDC_EphA2-00008082, da-MeF-N-L-Hgl-MeF-W1Me-V-W1Me-T-E-C-bA-dkAc-NH2] ({CH2CO}-[dA][NMeF]NL[Aad][NMeF][Trp(1-Me)]V[Trp(1-Me)]TEC[βAla][dK](Ac)-NH2; thioether N-12) was less than 1 nM.
As to `CC(=O)NCCCC[C@@H](NC(=O)CCNC(=O)[C@@H]1CSCC(=O)N[C@H](C)C(=O)N(C)[C@@H](Cc2cccnc2)C(=O)N[C@@H](CC(N)=O)C(=O)C[C@@H](CC(C)C)C(=O)N[C@@H](CCCC(=O)O)C(=O)N(C)[C@@H](Cc2ccccc2)C(=O)N[C@@H](Cc2cn(C)c3ccccc23)C(=O)N[C@@H](C(C)C)C(=O)N[C@@H](Cc2cn(C)c3ccccc23)C(=O)N[C@@H]([C@@H](C)O)C(=O)N[C@@H](CCC(=O)O)C(=O)N1)C(N)=O` [PDC_EphA2-00008083, da-Me3Py-N-L-Hgl-MeF-W1Me-V-W1Me-T-E-C-bA-dkAc-NH2] ({CH2CO}-[dA][NMe3Pal][X1][Aad][NMeF][Trp(1-Me)]V[Trp(1-Me)]TEC[βAla][dK](Ac)-NH2; thioether N-11), the Kd is less than 1 nM.
For `CC(=O)NCCCC[C@@H](NC(=O)CCNC(=O)[C@@H]1CSCC(=O)N[C@H](CCCCNC(=O)N2CCN(CC(=O)O)CC2)C(=O)N(C)[C@@H](Cc2cccnc2)C(=O)N[C@@H](CC(N)=O)C(=O)N[C@@H](CC(C)C)C(=O)N[C@@H](CCCC(=O)O)C(=O)N(C)[C@@H](Cc2ccccc2)C(=O)N[C@@H](Cc2cn(C)c3ccccc23)C(=O)N[C@@H](C(C)C)C(=O)N[C@@H](Cc2cn(C)c3ccccc23)C(=O)N[C@@H]([C@@H](C)O)C(=O)N[C@@H](CCC(=O)O)C(=O)N1)C(N)=O` [PDC_EphA2-00008084, dkCOpipzaa-Me3Py-N-L-Hgl-MeF-W1Me-V-W1Me-T-E-C-bA-dkAc-NH2] ({CH2CO}-[dK]([CO-Piperazinyl(4-CH2COOH)])[NMe3Pal]NL[Aad][NMeF][Trp(1-Me)]V[Trp(1-Me)]TEC[βAla][dK](Ac)-NH2; thioether N-12), the Kd fell in the range of 1 to 10 nM.
In the case of `CC(=O)NCCCC[C@@H](NC(=O)CCNC(=O)[C@@H]1CSCC(=O)N[C@H](CCCCNC(=O)N2CCN(CC(=O)O)CC2)C(=O)N(C)[C@@H](Cc2cccnc2)C(=O)N[C@@H](CC(N)=O)C(=O)N[C@@H](CC(C)C)C(=O)N[C@@H](CCCCNC(=O)N2CCN(CC(=O)O)CC2)C(=O)N(C)[C@@H](Cc2ccccc2)C(=O)N[C@@H](Cc2cn(C)c3ccccc23)C(=O)N[C@@H](C(C)C)C(=O)N[C@@H](Cc2cn(C)c3ccccc23)C(=O)N[C@@H]([C@@H](C)O)C(=O)N[C@@H](CCC(=O)O)C(=O)N1)C(N)=O` [PDC_EphA2-00008085, dkCOpipzaa-Me3Py-N-L-KCOpipzaa-MeF-W1Me-V-W1Me-T-E-C-bA-dkAc-NH2] ({CH2CO}-[dK]([CO-Piperazinyl(4-CH2COOH)])[NMe3Pal]NLK([CO-Piperazinyl(4-CH2COOH)])[NMeF][Trp(1-Me)]V[Trp(1-Me)]TEC[βAla][dK](Ac)-NH2; thioether N-12), the Kd was 1 to 10 nM.
For `CC(=O)NCCCC[C@@H](NC(=O)CCNC(=O)[C@@H]1CSCC(=O)N[C@H](CCCCNC(=O)N2CCN(CC(=O)O)CC2)C(=O)N(C)[C@@H](Cc2cccnc2)C(=O)N[C@@H](CC(N)=O)C(=O)N[C@@H](CC(C)C)C(=O)N[C@@H](CCCCNC(=O)N2CCN(CC(=O)O)CC2)C(=O)N(C)[C@@H](Cc2ccccc2)C(=O)N[C@@H](Cc2cn(C)c3ccccc23)C(=O)N[C@@H](C(C)C)C(=O)N[C@@H](Cc2cn(C)c3ccccc23)C(=O)N[C@@H]([C@@H](C)O)C(=O)N[C@@H](CCCC(N)=O)C(=O)N1)C(N)=O` [PDC_EphA2-00008086, dkCOpipzaa-Me3Py-N-L-KCOpipzaa-MeF-W1Me-V-W1Me-T-Hgn-C-bA-dkAc-NH2] ({CH2CO}-[dK]([CO-Piperazinyl(4-CH2COOH)])[NMe3Pal]NLK([CO-Piperazinyl(4-CH2COOH)])[NMeF][Trp(1-Me)]V[Trp(1-Me)]T[Aad](NH2)C[βAla][dK](Ac)-NH2; thioether N-12) the value was less than 1 nM; for `CC(=O)NCCCC[C@@H](NC(=O)CCNC(=O)[C@@H]1CSCC(=O)N[C@H](C)C(=O)N(C)[C@@H](Cc2cccnc2)C(=O)N[C@@H](CC(N)=O)C(=O)N[C@@H](CC(C)C)C(=O)N[C@@H](CCCC(=O)O)C(=O)N(C)[C@@H](Cc2ccccc2)C(=O)N[C@@H](Cc2cn(C)c3ccccc23)C(=O)N[C@@H](CCCCNC(=O)N2CCN(CC(=O)O)CC2)C(=O)N[C@@H](Cc2cn(C)c3ccccc23)C(=O)N[C@@H]([C@@H](C)O)C(=O)N[C@@H](CCC(=O)O)C(=O)N1)C(N)=O` [PDC_EphA2-00008087, da-Me3Py-N-L-Hgl-MeF-W1Me-KCOpipzaa-W1Me-T-E-C-bA-dkAc-NH2] ({CH2CO}-[dA][NMe3Pal]NL[Aad][NMeF][Trp(1-Me)]K([CO-Piperazinyl(4-CH2COOH)])[Trp(1-Me)]TEC[βAla][dK](Ac)-NH2; thioether N-12), less than 1 nM.
